Measurements reported in publication PMC4036227 (Journal of medicinal chemistry, 2013).
Like-named read-outs stand apart in the source and are kept apart here.

Key:
[1] = target: T1, S31N mutant M2 proton channel (full length AM2 protein) (Influenza A virus, UniProt P0DOF5, S31N); assay type: biochemical; settings: 100 µM
[2] = system: A/WSN/33-N31S (WT) virus; assay type: cell-based
[3] = target: T1, S31N mutant M2 proton channel (full length AM2 protein); settings: cited from earlier work

Compound | S31N % inhibition (TEVC) [1] | also measured
c1ccc(CNC23CC4CC(CC(C4)C2)C3)nc1 [Compound 33] | 0% | 
C[C@@H]1[C@@H](/N=C/c2ccc(O)cc2)C[C@H]2C[C@@H]1C2(C)C [Compound 4] | 0% | 
NC12CC3CC(CC(C3)C1)C2 [Compound 1, amantadine] | 35 ± 2/ % | 
Oc1ccc(CNC23CC4CC(CC(C4)C2)C3)c(O)c1 [Compound 44, 4-(adamantan-1-ylaminomethyl)-benzene-1,3-diol] |  | inhibition of plaque formation, WT virus [2]: complete inhibition
COC(=O)[C@H](Cc1cnc[nH]1)NCC12CC3CC(CC(C3)C1)C2 [Compound 3] | 0% | 
pinanamine |  | S31N % inhibition (TEVC) [3]: 0%
CC(N)C12CC3CC(CC(C3)C1)C2 (stereo not shown) [Compound 2, rimantadine] | 13% | 
